ChEMBL document CHEMBL4622844, “Inhibition of bacterial growth and galactosyltransferase activity of WbwC by α, ω-bis(3-alkyl-1H-imidazolium)alkane salts: Effect of varying carbon content” (Bioorg Med Chem, 2020)
Each block holds one compound with its values, some of them ahead of it. Activity calls are given as the source filed them. The calls are words filed in the database; no cut-off is given here.

Assays:
[1] = tested on: Escherichia coli; experiment: Inhibition of recombinant Escherichia coli O104:H4 Beta-1,3-galactosyltransferase WbwC expressed in Escherichia coli BL21 at 0.5 mM in presence of UDP-[3H]Gal and GalNAC-PO3-PO3-(CH2)11-O-phenyl after 1 hr by scintillation counting method relative to control
[2] = molecular target: T1, Beta-1,4-galactosyltransferase 1 (Bos taurus) (UniProt P08037); experiment: Inhibition of bovine milk Beta-1,4-galactosyltransferase at 0.5 mM in presence of UDP-[3H]Gal and GlcNAc-beta-Bn after 1 hr by scintillation counting method
T1 sequence (whole entry): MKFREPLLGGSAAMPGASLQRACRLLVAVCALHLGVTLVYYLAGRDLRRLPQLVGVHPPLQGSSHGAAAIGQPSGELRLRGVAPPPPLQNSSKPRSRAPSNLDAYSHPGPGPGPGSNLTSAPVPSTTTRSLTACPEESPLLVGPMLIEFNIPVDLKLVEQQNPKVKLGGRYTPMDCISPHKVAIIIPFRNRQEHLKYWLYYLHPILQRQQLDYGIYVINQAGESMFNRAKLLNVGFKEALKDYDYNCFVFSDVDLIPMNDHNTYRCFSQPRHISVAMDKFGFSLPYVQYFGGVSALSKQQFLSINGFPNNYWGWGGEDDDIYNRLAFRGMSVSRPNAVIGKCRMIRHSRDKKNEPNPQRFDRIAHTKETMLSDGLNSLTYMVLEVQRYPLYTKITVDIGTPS

[3] = Inhibition of recombinant Escherichia coli O104:H4 Beta-1,3-galactosyltransferase WbwC expressed in Escherichia coli BL21 in presence of UDP-[3H]Gal and GalNAC-PO3-PO3-(CH2)11-O-phenyl after 1 hr by scintillation counting method
[4] = tested on: A549; experiment: Growth inhibition of human A549 cells at 50 uM after 24 hrs by MTT assay; assay type: cell-based; settings: a549, 24 h
[5] = tested on: OC-3-VGH; experiment: Growth inhibition of human OC-3-VGH cells at 50 uM after 24 hrs by MTT assay; assay type: cell-based
[6] = tested on: AD293; experiment: Growth inhibition of human AD293 cells at 50 uM after 24 hrs by MTT assay; assay type: cell-based; settings: ad293, 24 h
[7] = tested on: Pseudomonas aeruginosa; experiment: Antimicrobial activity against Pseudomonas aeruginosa PAO1 assessed as inhibition of colony formation at 50 uM preincubated for 4 hrs and measured after overnight incubation by CFU assay; assay type: functional
[8] = tested on: Escherichia coli; experiment: Antimicrobial activity against Escherichia coli BL21 assessed as inhibition of colony formation at 25 uM preincubated for 4 hrs and measured after overnight incubation by CFU assay; assay type: functional
[9] = tested on: Escherichia coli; experiment: Antimicrobial activity against Escherichia coli BL21 assessed as inhibition of colony formation at 10 uM preincubated for 4 hrs and measured after overnight incubation by CFU assay; assay type: functional
[10] = tested on: Staphylococcus epidermidis; experiment: Antimicrobial activity against Staphylococcus epidermidis assessed as inhibition of colony formation at 10 uM preincubated for 4 hrs and measured after overnight incubation by CFU assay; assay type: functional
[11] = tested on: Escherichia coli; experiment: Antimicrobial activity against Escherichia coli BL21 assessed as inhibition of colony formation at 5 uM preincubated for 4 hrs and measured after overnight incubation by CFU assay; assay type: functional
[12] = tested on: Pseudomonas aeruginosa; experiment: Antimicrobial activity against Pseudomonas aeruginosa PAO1 assessed as inhibition of colony formation at 25 uM preincubated for 4 hrs and measured after overnight incubation by CFU assay; assay type: functional
[13] = tested on: Pseudomonas aeruginosa; experiment: Antimicrobial activity against Pseudomonas aeruginosa PAO1 assessed as inhibition of colony formation at 10 uM preincubated for 4 hrs and measured after overnight incubation by CFU assay; assay type: functional
[14] = tested on: Bacillus subtilis; experiment: Antimicrobial activity against Bacillus subtilis assessed as inhibition of colony formation at 25 uM preincubated for 4 hrs and measured after overnight incubation by CFU assay; assay type: functional
[15] = tested on: Staphylococcus epidermidis; experiment: Antimicrobial activity against Staphylococcus epidermidis assessed as inhibition of colony formation at 5 uM preincubated for 4 hrs and measured after overnight incubation by CFU assay; assay type: functional
[16] = tested on: Bacillus subtilis; experiment: Antimicrobial activity against Bacillus subtilis assessed as inhibition of colony formation at 10 uM preincubated for 4 hrs and measured after overnight incubation by CFU assay; assay type: functional
[17] = tested on: Pseudomonas aeruginosa; experiment: Antimicrobial activity against Pseudomonas aeruginosa PAO1 assessed as inhibition of colony formation at 5 uM preincubated for 4 hrs and measured after overnight incubation by CFU assay; assay type: functional
[18] = tested on: Bacillus subtilis; experiment: Antimicrobial activity against Bacillus subtilis assessed as inhibition of colony formation at 5 uM preincubated for 4 hrs and measured after overnight incubation by CFU assay; assay type: functional
[19] = tested on: Staphylococcus epidermidis; experiment: Antimicrobial activity against Staphylococcus epidermidis assessed as inhibition of colony formation at 25 uM preincubated for 4 hrs and measured after overnight incubation by CFU assay; assay type: functional

Compound: CCCCCCCCCCCC[n+]1ccn(CCCCCCCCCCCCCCCCn2cc[n+](CCCCCCCCCCCC)c2)c1
inhibition [1]: 92% | inhibition [2]: Active | IC50 [3]: 121 µM

Compound: c1cn(CCCCCCCCCCCCCCCCCCCCn2ccnc2)cn1
growth inhibition (GI) [4]: Non-Toxic | growth inhibition (GI) [5]: Non-Toxic | growth inhibition (GI) [6]: Non-Toxic

Compound: c1cn(CCCCCCCCCCCCCCCCn2ccnc2)cn1
growth inhibition (GI) [4]: Non-Toxic | growth inhibition (GI) [5]: Non-Toxic | growth inhibition (GI) [6]: Non-Toxic

Compound: C[n+]1ccn(CCCCCCn2cc[n+](C)c2)c1
inhibition at 50 µM [7]: 0% | inhibition [1]: 7%

Compound: CCCCCCCCC[n+]1ccn(CCCCCCCCCCCCCCCCn2cc[n+](CCCCCCCCC)c2)c1
inhibition [1]: 93% | IC50 [3]: 35 µM

Compound: C[n+]1ccn(CCCCCCCCCCCCCCn2cc[n+](C)c2)c1
inhibition at 25 µM [8]: 51% | inhibition at 10 µM [9]: 32% | inhibition [1]: 10% | inhibition at 10 µM [10]: 0% | inhibition at 5 µM [11]: 0% | inhibition at 25 µM [12]: 22% | inhibition at 10 µM [13]: 4% | inhibition at 25 µM [14]: 51% | inhibition at 5 µM [15]: 0% | inhibition at 10 µM [16]: 20% | inhibition at 5 µM [17]: 0% | inhibition at 5 µM [18]: 8% | inhibition at 25 µM [19]: 0%

Compound: CCCCCCC[n+]1ccn(CCCCCCn2cc[n+](CCCCCCC)c2)c1
inhibition [1]: 16%

Compound: CCCCCC[n+]1ccn(CCCCCCn2cc[n+](CCCCCC)c2)c1
inhibition [1]: 6%

Compound: C[n+]1ccn(CCCCCCCCCCCCCCCCn2cc[n+](C)c2)c1
inhibition [1]: < 1%

Compound: C[n+]1ccn(CCCCCCCCCCCCCCCn2cc[n+](C)c2)c1
inhibition [1]: 11%

Now from value to compound, other results behind:

inhibition [1]: 88% | inhibition [2]: Active | IC50 [3]: 48 µM
Compound: CCCCCC[n+]1ccn(CCCCCCCCCCCCCCCCn2cc[n+](CCCCCC)c2)c1

inhibition [1]: 95% | inhibition [2]: Active | IC50 [3]: 23 µM
Compound: CCCCCCCCC[n+]1ccn(CCCCCCCCCCn2cc[n+](CCCCCCCCC)c2)c1

inhibition [1]: < 10%
Compound: CCCCCCCCC[n+]1ccn(CCCCCCn2cc[n+](CCCCCCCCC)c2)c1

inhibition [1]: 99% | IC50 [3]: 117 µM
Compound: CCCCCCCCCCC[n+]1ccn(CCCCCCn2cc[n+](CCCCCCCCCCC)c2)c1

inhibition [1]: 93% | IC50 [3]: 18 µM
Compound: CCCCCCCC[n+]1ccn(CCCCCCCCCCCCCCCCn2cc[n+](CCCCCCCC)c2)c1

inhibition [1]: < 1%
Compound: CCCCCC[n+]1ccn(CCCCCCCCCCn2cc[n+](CCCCCC)c2)c1

inhibition [1]: 64% | IC50 [3]: 123 µM
Compound: CCCCCCCC[n+]1ccn(CCCCCCCCCCn2cc[n+](CCCCCCCC)c2)c1
inhibition at 25 µM [8]: 100% | inhibition at 10 µM [9]: 100% | inhibition at 10 µM [10]: 100% | inhibition at 5 µM [11]: 100% | inhibition at 25 µM [12]: 100% | inhibition at 10 µM [13]: 100% | inhibition at 25 µM [14]: 100% | inhibition at 5 µM [15]: 100% | inhibition at 10 µM [16]: 100% | inhibition at 5 µM [17]: 96% | inhibition at 5 µM [18]: 100% | inhibition at 25 µM [19]: 100%
